These results are taken from a melting point compilation (Tetko et al.; mined from patent text by program, amines drawn as free bases though some values may be those of a salt).

What is called melting point is the temperature, or range, at which the solid turns liquid. `O=C(c1ccc(Cl)cc1)c1noc(CS(=O)c2ccccc2)n1` (centres undefined): the melting point lay within 93 to 95 °C. The same measure for `CC(C)Cn1c(=O)n(C)c(=O)c2c(SCC(C)O)c(Cc3cccc4ccccc34)sc21` (centres undefined): 126 to 128 °C; for `N#Cc1ccc2c(c1)S(=O)(=O)c1ccc(N)cc1C=C2`: 321 to 324 °C; for `O=c1ccn([C@@H]2C(F)=C(CCO)[C@@H](O)[C@H]2O)c(=O)[nH]1`: 166 to 167 °C. To `Cc1ccc2[nH]c(=O)n(CCCN3CCC(C(=O)c4ccc(F)cc4)CC3)c2c1` belongs 150 °C. For `COc1cccc(-c2cccc(C(N)=O)c2)c1`, the melting point is 138 to 140 °C.

Take `Cc1nc(-n2ccc(NCc3ccccc3)cc2=O)sc1C(=O)NCc1ccccc1`: the melting point is 253 to 255 °C. To `Cc1cccc(-c2ccc(NC(=O)OC(C)(C)C)c([N+](=O)[O-])c2)c1` belongs 83 to 85 °C. Turning to `O=S(=O)(c1ccc(Cl)s1)N(CCO)CCO`, the melting point came out at 69 °C. In turn, `Cc1cc(NC(=O)C(C)(O)COc2ccc(CCCl)c(F)c2)ccc1[N+](=O)[O-]` (centres undefined) displayed a melting point of 77 to 79 °C.

On to `COc1cccc(CNC(=O)c2nc3c(cc(C)n3S(C)(=O)=O)c(=O)[nH]2)c1`, for which the melting point fell in the range of 211 to 213 °C. `O=C(CNC(=O)c1n[nH]cc1NC(=O)c1ccccn1)c1ccccc1` returned a melting point of 270 to 271 °C.

Turning to `Cc1coc2c1C(=O)CC(c1ccco1)C2` (centres undefined), the melting point lay within 60 to 61 °C. To `CNc1ccccc1-c1nc2ncccc2[nH]1` belongs 262 to 263 °C; to `O=C(O)c1ccc(NCCCCCCOc2ccc3ccccc3c2)cc1`, 157 to 159 °C; to `O=C(O)CCCC(=O)c1cn(-c2cccnc2)c2ccccc12`, 177 to 178 °C.

In turn, `CC(=O)c1c(-c2ccncc2)[nH]c(-c2ccncc2)c1C` had a melting point of 237 to 240 °C. To `O=C(OCc1cccnc1)c1ccc(F)cc1` belongs 142 to 143 °C; to `Cc1nnc2c(NC3CCCC3)nc3ccccc3n12`, 196 to 198 °C; to `CCOC(=O)C1(C(=O)OCC)SCC(N(C)C)CS1`, 38 to 39 °C.

With `CC(C)c1cc(O)cc2cc(-c3ccc(O)cc3)oc12`, the melting point lay in the range of 192 to 194 °C.

Turning to `CC1=C(C(=O)Nc2ccccc2)SC2=NCCN21`, the melting point was 204 to 205 °C.

In turn, `COc1cc2nc(N3CCN(C(=O)C4CC=CCC4)CC3)nc(N)c2cc1OC` (centres undefined) had a melting point of 211 to 213 °C. As for `Nc1cscc1NC(=S)Nc1c(Cl)csc1Cl`, the melting point lay within 110 to 115 °C.

Consider `O=C1CC2CCCC(CC(=O)OCc3ccccc3)C2N1` (centres undefined), for which the melting point is 89 to 90 °C.

`Cc1cc(-c2noc(CO)n2)ccc1Br` yielded a melting point of 111 to 112 °C. The same measure for `Cc1cccc(C)c1NC(=O)N(Cc1ccccc1)CC1(c2ccccc2)CCCC1`: 200 to 202 °C.

The molecule `CC(=O)OC1CCCC(n2c(Br)nc3cc(Cl)c(Cl)cc32)C1OC(C)=O` (centres undefined) came in with a melting point of 71 to 79 °C. To `O=C(NCCCCCO)c1cc([N+](=O)[O-])cc([N+](=O)[O-])c1Cl` belongs 100 to 103 °C.

In the case of `O=C(Nc1ccccn1)c1c(C(F)(F)F)nc2c(C(F)(F)F)cccc2c1O`, the melting point was determined as 236 °C. The same measure for `CCOC(=O)N1C(=S)NC(C)=C(C(=O)OC)C1c1cccc(Cl)c1Cl` (centres undefined): 190 to 191 °C; for `COc1ccc(C=CC(=O)NCCc2ccc(-c3ccccc3)c(S(N)(=O)=O)c2)c(OC)c1`: 85 °C; for `CC(C)(C)OC(=O)Cn1c(=O)n(S(=O)(=O)c2ccc(Cl)cc2)c(=O)c2ccc(Cl)cc21`: 188 to 190 °C. Molecule `COc1ccc2c(c1)CN(C(C)=O)N=C2Cc1c(Cl)cncc1Cl` had a melting point of 186 to 188 °C. The same measure for `C=CCc1cc(Cc2cnc(N)nc2N)c2cccnc2c1OCCOC`: 196 to 200 °C; for `COc1ccc([C@@H]2CN(C)CC[C@@H]2NC(=O)c2cccc(C(F)(F)F)c2)cc1OC` (relative stereo): 122 to 124 °C; for `O=C(CCc1ccc(OCc2ccccc2)cc1)C(F)(F)F`: 71 to 72 °C. To `CCCCCCCNC(=O)Nc1ccc(N(C)C)cc1C(=O)NC1CCN(C(c2ccccc2)c2ccccc2)CC1` belongs 204 to 206 °C. To `O=[N+]([O-])c1ccc2oc(Cc3ccccc3)cc2c1` belongs 100 °C. As to `COc1ccc(CN(C)CCCCCc2ccc(NC(=O)c3cccc4c(=O)c5ccccc5[nH]c34)cc2)cc1OC`, the melting point came out at 110 °C. To `COC(=O)c1ccc(Cl)cc1NC(=O)Cc1cccc(C#Cc2ccccc2)c1` belongs 100 to 101 °C; to `Cc1cc2c(s1)c(=O)c(C(=O)O)cn2C`, 305 to 315 °C; to `NC(=O)c1cccc(-c2nc(=O)c3ccccc3s2)n1`, 295 °C.

In the case of `Cc1ccc(C#N)cc1C#N`, the melting point was 142 to 143 °C. The same measure for `CC(=O)Nc1ccc2c(c1)C(CN1CCC(c3ccc(F)cc3)CC1)CC2` (centres undefined): 145 to 146 °C; for `CC(C)=CCN1CC(NC(=O)Nc2cccc(C(=O)O)c2)C(=O)N(CC(=O)c2ccccc2C)c2cc(C)ccc21` (centres undefined): 129 to 131 °C. To `CC(C)(C)OC(=O)N1CCC(C(=O)Nc2ccccc2Oc2ccc(OC(F)(F)F)cc2)CC1` belongs 45 to 48 °C; to `C#CC[C@]12C=CC(=O)C=C1CC[C@H]1[C@@H]3CCC(=O)[C@@]3(C)CC[C@@H]12`, 200 to 201 °C.

With `CC(=O)c1ccccc1NC(c1c(Cl)cccc1Cl)C1CC1` (centres undefined), the melting point turned out to be 116 °C.

`COc1ccc(C(=O)N2c3ccccc3C(N3CCc4ccccc4C3)CC2C)cc1OC` (centres undefined): the melting point fell in the range of 128 to 129 °C. Consider `CCc1nc2c(N)nc3ccc(OCc4ccccc4)cc3c2n1CCCCNC(=O)c1ccccc1`, for which the melting point fell in the range of 226 to 230 °C.

As to `N#CCC(=O)N1CC=CCC1`, the melting point was 58 to 59 °C. To `Cc1nc(CO)sc1-c1ccnc(Nc2ccc(N3CCCCC3)cc2)n1` belongs 194 to 195 °C.

`NS(=O)(=O)c1ccc(NC(=O)Nc2ccc(Oc3ccccc3)cc2)cc1` had a melting point of 236 to 237 °C. The molecule `Cc1cc2c(cc1F)NC(=O)C2` came in with a melting point of 168 to 171 °C. Molecule `CCCCOc1nccc2c1C(c1ccccc1C(F)(F)F)C(C(=O)OCC)=C(C)N2` (centres undefined) gave a melting point of 174 to 175 °C. In the case of `CN(C)C(=O)c1ccc([N+](=O)[O-])cc1S(N)(=O)=O`, the melting point is 159 to 160 °C. `C[C@H](CS(C)(=O)=O)NC(=O)c1c[nH]c2ncc(-c3nn(C)c4cc(Cl)ccc34)nc12` registered a melting point of 287 to 290 °C. `COC(=O)c1cccc2[nH]c(-c3ccc(Cl)cc3)cc12` returned a melting point of 150 to 152 °C.

`C=CCOc1ccc2c(C)cc(=O)oc2c1C(=O)C=Cc1ccc(Cl)cc1` had a melting point of 153 to 155 °C. To `CN1C(=O)C(C2=COc3ccccc3O2)=C(c2c[nH]c3cc(F)ccc23)C1=O` belongs 214 °C; to `CCNc1nc(N)nc(-c2ccccc2)c1-c1ccc(=O)n(C(C)C)n1`, 208 to 209 °C; to `Cc1nc(=O)n(C)cc1Cl`, 132 to 134 °C.

Consider `O=C1CCC(N2C(=O)c3cccc(CNC(=O)Nc4ccc(Cl)c(Cl)c4)c3C2=O)C(=O)N1` (centres undefined), for which the melting point was 241 to 243 °C.

`O=C(O)c1cn(-c2ccncc2F)c2nc(Cl)c(F)cc2c1=O` displayed a melting point of 228 to 230 °C.

As for `O=c1c2c(nc3ccc(Br)cn13)C(=Cc1ccc(Cl)cc1)CC2`, the melting point was in the range of 233 to 234 °C. The same measure for `COc1cc2c(cc1OC)CN(c1nc(N)c3cc(OC)c(OC)cc3n1)C2`: 264 to 266 °C; for `CCOC(=O)C1(c2ccccc2)CCC=CC1OC(C)=O` (centres undefined): 72 to 73 °C. `COC(=O)c1c(CBr)cccc1CBr` came in with a melting point of 76 to 79 °C. For the molecule `CCCCOC(=O)CS(=O)(=O)CC=C1SC=CS1`, the melting point is 99 to 100 °C.

As for `O=C(O)c1c(-c2cccc([N+](=O)[O-])c2)oc2ncnc(O)c12`, the melting point is greater than 300 °C. On to `OC(=S)CCc1cccc(Br)c1`, for which the melting point lay within 90 to 91 °C.

The molecule `Cc1cc(Nc2ncnc3ccc(-c4ccoc4)cc23)ccc1OCc1ccccn1` showed a melting point of 206 to 208 °C. `Cc1[nH]c2ccc(CCN3CCCC3)cc2c1C(=O)OCc1ccccc1` returned a melting point of 76 to 78 °C. With `NC1=NS(=O)(=O)N=C1NCCCN(Cc1ccccc1)c1ccccn1`, the melting point was 192 to 193 °C. To `O=C(C=Cc1ccc(-c2ccc(Cl)cc2)cc1)Nc1ccc(CN2CCCCC2)cc1` belongs 265 to 270 °C. To `Cc1cc(C(=O)NCOC(=O)CO)ncc1C(c1cc(F)ccc1F)S(=O)(=O)c1ccc(F)cc1` (centres undefined) belongs 84 °C. The same measure for `OCC1OC(n2cnc3c(NC4CCCCC4)ncnc32)C(O)C1O` (centres undefined): 185 to 187 °C; for `Cc1cc(S(C)(=O)=O)c(S(C)(=O)=O)cc1C(=O)N=C(N)N`: greater than 240 °C. For `O=c1c2c(Cl)cccc2nc(C(S)c2ncnc3[nH]cnc23)n1-c1ccccc1Cl` (centres undefined), the melting point amounted to 234 °C. To `COc1ccc2c(c1)c(CCO)c(C)n2-c1ccnc2cc(Cl)ccc12` belongs 143 to 145 °C; to `CCc1ccc(NC2=CC3=NCN(C)C3=CC2(F)C(=O)OC)c(F)c1` (centres undefined), 238 °C; to `CC1=C(C(=O)OCOC(=O)C(C)(C)C)C(c2cccc([N+](=O)[O-])c2)C(C(=O)OCOC(=O)C(C)(C)C)=C(C)N1`, 124 to 125 °C.

`CN1C(=O)c2ccccc2OC1(C)COc1ccc(CC2SC(=O)NC2=O)cc1` (centres undefined) showed a melting point of 58 to 60 °C. For the molecule `Cc1ccc(NC=CS(=O)(=O)F)cc1`, the melting point was in the range of 61 to 65 °C.

Consider `C=CCC(O)(Cn1cncn1)C1(Cl)CC1` (centres undefined), for which the melting point lay within 75 to 76 °C. The same measure for `CCNC(C)Cc1ccc(O)cn1` (centres undefined): 75 to 79 °C; for `CC(C)(Cc1ccccc1)C(NC(=O)COc1ccccc1)Nc1c(Nc2cccnc2)c(=O)c1=O` (centres undefined): 249 to 250 °C. Molecule `CN1Cc2c(I)ncn2-c2cccc(Br)c2C1=O` yielded a melting point of 203 to 204 °C.
